From patent US20010016593A1, “Element giving rapid release of nicotine for transmucosal administration” (priority 1999, published 2001)

What was measured:
[1] = 10 mg tablets swallowed at two hour intervals; cited from earlier work
[2] = Element placed in the mouth: subjectively reported nicotine pulse sensation; type: in vivo, humans; conditions: equivalent amounts of nicotine
Source text: The experiments of Examples 1-16 above describe the physiological effects of consuming a measured (calculated) dose of nicotine in the manner of the instant invention. Moreover, the inventor has found a distinct physiological and mental sensation associated with the administration of one or more nicotine doses. This is believed to strongly resemble the physiological and mental sensation associated with inhaling a puff of the smoke of burning tobacco, which it is believed have some pleasurable component or consideration thereof on the part of the recipient. There is believed to be some longer-lasting physiological and/or mental satisfaction, or lack of further nicotine effect desire, after one or more administrations of nicotine, just as is the case for most people after smoking a part or all of one or more cigarettes.
The examples as described above are of necessity reported in a subjective manner.

[3] = cigarette smoking; cited from earlier work
[4] = cited from earlier work
[5] = during cigarette smoking; cited from earlier work
[6] = in vivo; cited from earlier work
[7] = solutions on shaved bellies of cats; cited from earlier work
[8] = pH less than 7; cited from earlier work

Row | SMILES | effect of swallowed tablets [1] | efficiency of transmucosal administration compared with smoking [2] | time to carry nicotine from the lungs to the brain [3] | confusion, memory loss and lack of alertness associated with Alzheimer's disease ([4]; nicotine administration) | local tolerability of the injection ([4]; subcutaneous injection, under some conditions) | discriminative sensitivity and reaction time ([4]; subcutaneous injection, patients with dementia of the Alzheimer type) | arterial levels exceeding venous levels [5] | mental efficiency, rapid information processing, learning, and vigilance [6] | rate of percutaneous absorption [7] | bucal absorption [8]
1 | CN1CCCC1c1cccnc1.O=C(O)C(O)C(O)C(=O)O (stereo not shown) [nicotine tartrate] | only a small effect |  |  |  |  |  |  |  |  | 
2 | CN1CCCC1c1cccnc1 (stereo not shown) [nicotine] |  | not as efficient as smoking | less than 20 seconds | combated the confusion, memory loss and lack of alertness | severe muscular irritation | efficacious in improving discriminative sensitivity and reaction time | six to ten | improve mental efficiency, rapid information processing, learning, and vigilance | much more rapidly than nicotine salts | very slow
